From ChEMBL document CHEMBL1201862, “PubChem BioAssay data set” (2004)
Active and inactive are the calls of the source.

Assays:
[1] = molecular target: T1, Neuropeptides B/W receptor type 1 (Homo sapiens, UniProt P48145); assay: human NPBW1 receptor blockade, IC50 – cell-based, fluorescence, dose response, set 6, late-stage follow-up (AID 588583); format: functional
T1 sequence (P48145 whole entry): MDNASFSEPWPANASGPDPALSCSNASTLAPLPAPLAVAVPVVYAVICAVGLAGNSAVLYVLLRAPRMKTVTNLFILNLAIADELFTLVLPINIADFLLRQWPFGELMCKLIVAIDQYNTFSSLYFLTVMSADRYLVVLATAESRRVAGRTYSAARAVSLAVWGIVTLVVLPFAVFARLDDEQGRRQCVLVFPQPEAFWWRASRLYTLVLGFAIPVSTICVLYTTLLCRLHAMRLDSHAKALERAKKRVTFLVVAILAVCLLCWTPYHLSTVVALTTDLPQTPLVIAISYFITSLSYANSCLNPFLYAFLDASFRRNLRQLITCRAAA

[2] = molecular target: Melanin-concentrating hormone receptor 1 (Homo sapiens, UniProt Q99705); assay: Late-stage fluorescence-based counterscreen for antagonists of the G-protein coupled receptor 7 (GPR7): cell-based dose response assay to identify antagonists of the melanin-concentrating hormone receptor 1 (MCHR1) Set 6.; format: functional
[3] = molecular target: T2, Orexin/Hypocretin receptor type 1 (Homo sapiens, UniProt O43613); assay: Homogeneous Time Resolved Fluorescence (HTRF)-based cell-based high throughput dose response assay for antagonists of the orexin 1 receptor (OX1R; HCRTR1). [Related pubchem assays (depositor defined):AID434989, AID435008, AID463079, AID485270, AID492963, AID492964, AID492965, AID493232, AID504717, AID504718]; format: functional
T2 sequence (O43613 whole entry): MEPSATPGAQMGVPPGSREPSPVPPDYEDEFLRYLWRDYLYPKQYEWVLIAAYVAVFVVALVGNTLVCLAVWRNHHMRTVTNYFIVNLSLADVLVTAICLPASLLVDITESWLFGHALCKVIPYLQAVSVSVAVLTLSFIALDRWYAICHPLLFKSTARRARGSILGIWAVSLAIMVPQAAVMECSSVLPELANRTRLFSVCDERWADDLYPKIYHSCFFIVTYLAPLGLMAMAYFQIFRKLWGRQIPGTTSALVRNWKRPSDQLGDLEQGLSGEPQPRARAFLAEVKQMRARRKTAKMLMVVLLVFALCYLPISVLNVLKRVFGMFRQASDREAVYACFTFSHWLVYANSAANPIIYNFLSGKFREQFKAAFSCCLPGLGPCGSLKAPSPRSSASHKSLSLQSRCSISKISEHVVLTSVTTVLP

CHO-K1 = assay: (§1) Counterscreen for antagonists of the orexin 1 receptor (OX1R; HCRTR1): Homogeneous time resolved fluorescence (HTRF)-based cell-based dose response assay to identify antagonists of the parental CHO-K1 cell line. [Related pubchem assays (depositor defined):AID434989, AID435008, AID463079, AID485270, AID492963, AID492964, AID492965, AID493232, AID504699, AID504701]; format: functional; settings: Cricetulus griseus
Orexin receptor type 2 [4] = molecular target: T3, Orexin receptor type 2 (Homo sapiens, UniProt O43614); assay: Counterscreen assay for antagonists of the orexin 1 receptor (OX1R; HCRTR1): Homogeneous Time Resolved Fluorescence (HTRF)-based cell-based dose response assay for antagonists of the orexin 2 receptor (OX2R; HCRTR2), run by assay provider.; format: functional
T3 sequence (O43614 whole entry): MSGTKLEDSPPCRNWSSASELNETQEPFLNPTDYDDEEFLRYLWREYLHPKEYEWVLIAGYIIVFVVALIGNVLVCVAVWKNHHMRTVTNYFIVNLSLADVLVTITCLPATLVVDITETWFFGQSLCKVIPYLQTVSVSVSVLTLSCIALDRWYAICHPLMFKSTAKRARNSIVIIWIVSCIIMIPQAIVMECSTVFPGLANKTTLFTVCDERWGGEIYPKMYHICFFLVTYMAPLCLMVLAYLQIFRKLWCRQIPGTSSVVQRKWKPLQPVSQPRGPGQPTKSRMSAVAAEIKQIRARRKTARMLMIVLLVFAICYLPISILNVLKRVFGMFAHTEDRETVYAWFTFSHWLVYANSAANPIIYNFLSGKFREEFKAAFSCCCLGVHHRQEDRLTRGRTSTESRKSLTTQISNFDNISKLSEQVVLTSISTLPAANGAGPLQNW

Orexin receptor type 2 [5] = molecular target: T3, Orexin receptor type 2; assay: Counterscreen assay for antagonists of the orexin 1 receptor (OX1R; HCRTR1): Fluorescence-based cell-based dose response assay for antagonists of the orexin 2 receptor (OX2R; HCRTR2), run by assay provider.; format: functional
[6] = molecular target: T2, Orexin/Hypocretin receptor type 1; assay: Fluorescence-based cell-based high throughput dose response assay for antagonists of the orexin 1 receptor (OX1R; HCRTR1). [Related pubchem assays (depositor defined):AID434989, AID435008, AID463079, AID485270, AID492963, AID492964, AID492965, AID493232, AID504717, AID504718]; format: functional
[7] = as §1, with “Fluorescence-based” for “Homogeneous time resolved fluorescence (HTRF)-based”, “cell-based high throughput” for “cell-based”, “CHO” for “CHO-K1”; format: functional
Nonstructural protein 1 = Nonstructural protein 1 (Influenza A virus, UniProt Q194T2); format: functional, Influenza A virus (A/California/07/2009(H1N1))
[8] = bead-based luminescence quenchers, dual-tagged ARNT – biochemical, AlphaScreen, cherry-pick, artefact control for ARNT-TACC3 interaction inhibitor project, dose response (AID 651705); format: functional;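 note: AlphaScreen bead proximity signal that flags compounds interfering with the detection technology; potency reflects signal decrease which marks the compound as an assay artifact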
[9] = molecular target: Potassium voltage-gated channel subfamily KQT member 2 (Rattus norvegicus, UniProt O88943); assay: blockers of KCNQ2 channel current – cell-based, automated electrophysiology, set II, rat KCNQ2, dose response (AID 588637); format: functional
Trypsin = Trypsin (Sus scrofa, UniProt P00761); assay: trypsin protease activity blockade – biochemical, quenched peptide fluorescence, cherry-pick, selectivity assay for Rce1 protease inhibitor project, dose response (AID 488789)
[10] = molecular target: T4, Voltage-gated N-type calcium channel alpha-1B subunit/Amyloid beta A4 precursor protein-binding family A member 1 (Homo sapiens, UniProt Q00975+Q02410); format: protein assay
[11] = molecular target: T4, Voltage-gated N-type calcium channel alpha-1B subunit/Amyloid beta A4 precursor protein-binding family A member 1; format: protein assay; remark: listed apart in the source
Melanocortin receptor 4 = Melanocortin receptor 4 (Homo sapiens, UniProt P32245); format: functional, cell-based;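 note: Cell-based assay with luminescence read-out, confirmatory dose-response testing for agonist activity of biased ligands at MC4R; human U2OS cells with tagged receptor and beta-arrestin; potency of agonists that increase receptor coupling to beta-arrestin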
[12] = molecular target: T5, High affinity choline transporter 1 (Homo sapiens, UniProt Q9GZV3); assay: human choline transporter blockers, potency – cell-based, 5-point CRC, membrane potential dye, dose response (AID 504840); format: functional
T5 sequence (Q9GZV3 whole entry): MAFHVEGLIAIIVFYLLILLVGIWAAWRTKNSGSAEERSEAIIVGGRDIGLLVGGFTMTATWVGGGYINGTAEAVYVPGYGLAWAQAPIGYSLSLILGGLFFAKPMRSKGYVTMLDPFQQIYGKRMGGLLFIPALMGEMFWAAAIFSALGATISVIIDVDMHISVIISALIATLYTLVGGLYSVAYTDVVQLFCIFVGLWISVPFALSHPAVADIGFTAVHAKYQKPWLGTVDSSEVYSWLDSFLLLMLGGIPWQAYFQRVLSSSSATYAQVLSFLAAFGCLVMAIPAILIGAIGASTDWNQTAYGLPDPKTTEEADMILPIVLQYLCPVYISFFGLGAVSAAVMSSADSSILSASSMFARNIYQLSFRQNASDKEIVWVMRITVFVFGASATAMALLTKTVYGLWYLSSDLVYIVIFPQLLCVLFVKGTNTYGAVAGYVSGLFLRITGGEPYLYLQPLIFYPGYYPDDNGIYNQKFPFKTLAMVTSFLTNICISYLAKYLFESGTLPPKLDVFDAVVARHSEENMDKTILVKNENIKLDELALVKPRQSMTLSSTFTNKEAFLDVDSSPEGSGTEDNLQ

[13] = molecular target: T5, High affinity choline transporter 1; assay: human choline transporter blockers, potency – cell-based, 10-point CRC, membrane potential dye, dose response (AID 588401); format: functional;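 note: membrane potential dye fluorescence of choline-evoked depolarization via CHT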
[14] = viability of uninfected HEp-2 cells – cell-based, HTS, cytotoxicity control for RSV inhibitor project, dose response (AID 2410); format: functional; settings: human respiratory syncytial virus
[15] = molecular target: Heat shock protein HSP 90-alpha (Homo sapiens, UniProt P07900); format: functional, organism-based
[16] = molecular target: T6, Polyadenylate-binding protein 1 (Homo sapiens, UniProt P11940); assay: MLLE domain peptide-binding blockers, IC50 – biochemical, fluorescence polarization, FITC-PAM2 peptide, dose response (AID 602259); format: functional; settings: read-out: IC50_Mean
[17] = molecular target: Mitochondrial peptide methionine sulfoxide reductase (Bos taurus, UniProt P54149); assay: Absorbance-based biochemical high throughput dose response assay for activators of Methionine sulfoxide reductase A (MsrA).; format: functional
[18] = molecular target: T6, Polyadenylate-binding protein 1; assay: MLLE binding blockers, Cy5 peptide tracer – biochemical, fluorescence polarization, Cy5-PAM2 peptide, secondary, miRNA deadenylation inhibitor project, dose response (AID 602260); format: functional; settings: read-out: IC50_Mean
[19] = molecular target: Aryl hydrocarbon receptor (Homo sapiens, UniProt P35869); settings: Potency;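 note: confirmatory quantitative high-throughput screen measuring activation of the AhR signaling pathway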

Chain of Melanin-concentrating hormone receptor 1 (Q99705 whole entry): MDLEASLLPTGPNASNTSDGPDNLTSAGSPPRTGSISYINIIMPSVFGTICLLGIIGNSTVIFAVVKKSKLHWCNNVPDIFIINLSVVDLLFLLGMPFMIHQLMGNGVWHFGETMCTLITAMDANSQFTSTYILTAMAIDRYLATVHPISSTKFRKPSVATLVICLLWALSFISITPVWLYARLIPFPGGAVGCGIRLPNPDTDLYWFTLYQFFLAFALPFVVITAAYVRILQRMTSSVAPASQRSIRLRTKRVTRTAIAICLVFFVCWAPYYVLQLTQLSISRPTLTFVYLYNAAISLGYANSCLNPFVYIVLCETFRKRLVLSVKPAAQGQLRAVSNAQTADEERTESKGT
T6 sequence (P11940 whole entry, the tested form may be a part): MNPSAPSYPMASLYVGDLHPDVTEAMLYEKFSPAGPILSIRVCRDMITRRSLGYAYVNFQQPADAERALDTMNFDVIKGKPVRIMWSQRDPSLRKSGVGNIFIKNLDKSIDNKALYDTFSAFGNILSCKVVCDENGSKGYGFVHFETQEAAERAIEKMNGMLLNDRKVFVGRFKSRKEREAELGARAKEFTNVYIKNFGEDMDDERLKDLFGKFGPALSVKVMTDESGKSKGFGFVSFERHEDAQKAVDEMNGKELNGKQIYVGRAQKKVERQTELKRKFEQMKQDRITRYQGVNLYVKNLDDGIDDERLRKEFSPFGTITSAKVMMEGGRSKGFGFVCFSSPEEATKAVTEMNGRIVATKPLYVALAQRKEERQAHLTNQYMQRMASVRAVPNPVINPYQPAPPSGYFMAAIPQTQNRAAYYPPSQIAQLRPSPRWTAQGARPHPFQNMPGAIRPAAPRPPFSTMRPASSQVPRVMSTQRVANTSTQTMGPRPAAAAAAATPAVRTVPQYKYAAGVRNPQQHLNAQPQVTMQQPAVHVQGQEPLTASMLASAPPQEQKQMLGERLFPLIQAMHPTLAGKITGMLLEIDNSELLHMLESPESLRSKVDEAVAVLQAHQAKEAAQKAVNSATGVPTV
T4 sequence (Q00975 whole entry): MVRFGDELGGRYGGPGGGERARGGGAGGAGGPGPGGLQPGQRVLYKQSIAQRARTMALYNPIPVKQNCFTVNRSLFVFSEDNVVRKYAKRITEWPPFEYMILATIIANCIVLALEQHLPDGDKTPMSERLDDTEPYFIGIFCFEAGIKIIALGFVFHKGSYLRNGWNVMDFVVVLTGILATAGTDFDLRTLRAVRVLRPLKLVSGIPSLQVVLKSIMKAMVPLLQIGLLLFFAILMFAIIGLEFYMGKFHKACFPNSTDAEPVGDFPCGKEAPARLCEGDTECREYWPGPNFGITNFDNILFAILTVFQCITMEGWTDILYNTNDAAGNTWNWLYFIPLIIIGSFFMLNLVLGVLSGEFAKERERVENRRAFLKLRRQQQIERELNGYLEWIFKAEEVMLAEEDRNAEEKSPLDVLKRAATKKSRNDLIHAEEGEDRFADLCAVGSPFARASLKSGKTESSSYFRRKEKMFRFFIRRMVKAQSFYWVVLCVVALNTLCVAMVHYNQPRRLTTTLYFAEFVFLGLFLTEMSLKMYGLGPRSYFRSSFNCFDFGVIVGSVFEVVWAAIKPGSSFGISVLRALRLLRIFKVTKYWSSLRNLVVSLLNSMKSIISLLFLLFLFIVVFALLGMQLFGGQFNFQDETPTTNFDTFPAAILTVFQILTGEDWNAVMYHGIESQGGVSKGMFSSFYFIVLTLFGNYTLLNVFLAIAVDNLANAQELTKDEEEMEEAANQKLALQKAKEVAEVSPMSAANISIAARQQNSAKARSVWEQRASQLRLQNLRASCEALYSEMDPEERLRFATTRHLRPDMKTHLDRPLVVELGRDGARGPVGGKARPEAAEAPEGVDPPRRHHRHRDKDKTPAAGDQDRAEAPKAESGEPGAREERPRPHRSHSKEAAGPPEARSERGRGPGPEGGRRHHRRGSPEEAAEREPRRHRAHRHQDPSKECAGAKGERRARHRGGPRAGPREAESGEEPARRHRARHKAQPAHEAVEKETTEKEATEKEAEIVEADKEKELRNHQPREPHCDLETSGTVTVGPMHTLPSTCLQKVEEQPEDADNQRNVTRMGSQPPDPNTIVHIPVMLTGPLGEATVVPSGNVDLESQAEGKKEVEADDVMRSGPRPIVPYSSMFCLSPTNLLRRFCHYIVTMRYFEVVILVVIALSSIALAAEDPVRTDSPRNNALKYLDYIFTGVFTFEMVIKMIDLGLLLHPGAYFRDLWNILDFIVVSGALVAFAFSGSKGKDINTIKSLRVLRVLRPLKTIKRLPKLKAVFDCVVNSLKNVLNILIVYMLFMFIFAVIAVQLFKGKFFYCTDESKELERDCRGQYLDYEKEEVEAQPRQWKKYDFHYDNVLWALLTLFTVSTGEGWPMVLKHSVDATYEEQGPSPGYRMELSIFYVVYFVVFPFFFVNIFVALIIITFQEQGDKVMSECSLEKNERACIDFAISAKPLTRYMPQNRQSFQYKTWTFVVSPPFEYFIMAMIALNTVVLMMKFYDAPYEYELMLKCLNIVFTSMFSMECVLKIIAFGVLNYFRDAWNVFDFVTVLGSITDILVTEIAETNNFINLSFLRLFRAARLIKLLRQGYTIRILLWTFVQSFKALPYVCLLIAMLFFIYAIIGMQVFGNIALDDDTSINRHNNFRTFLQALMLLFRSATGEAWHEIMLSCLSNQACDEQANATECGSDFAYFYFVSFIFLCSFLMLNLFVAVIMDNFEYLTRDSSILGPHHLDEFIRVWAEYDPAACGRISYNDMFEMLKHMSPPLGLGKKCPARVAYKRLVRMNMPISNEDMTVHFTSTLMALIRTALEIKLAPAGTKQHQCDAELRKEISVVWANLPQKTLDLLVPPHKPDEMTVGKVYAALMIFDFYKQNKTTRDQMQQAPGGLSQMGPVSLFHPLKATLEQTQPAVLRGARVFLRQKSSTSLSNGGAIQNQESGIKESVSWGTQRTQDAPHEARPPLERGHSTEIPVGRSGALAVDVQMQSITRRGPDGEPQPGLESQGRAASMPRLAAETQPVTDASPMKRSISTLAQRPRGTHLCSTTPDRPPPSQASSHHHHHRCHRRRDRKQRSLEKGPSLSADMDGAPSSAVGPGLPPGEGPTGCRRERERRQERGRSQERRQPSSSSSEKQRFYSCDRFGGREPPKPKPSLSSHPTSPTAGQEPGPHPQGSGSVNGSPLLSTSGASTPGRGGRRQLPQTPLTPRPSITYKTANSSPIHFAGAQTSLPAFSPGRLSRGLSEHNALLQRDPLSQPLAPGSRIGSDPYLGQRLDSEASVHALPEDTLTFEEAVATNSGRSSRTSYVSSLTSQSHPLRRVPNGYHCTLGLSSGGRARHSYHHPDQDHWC
T4 sequence (Q02410 whole entry): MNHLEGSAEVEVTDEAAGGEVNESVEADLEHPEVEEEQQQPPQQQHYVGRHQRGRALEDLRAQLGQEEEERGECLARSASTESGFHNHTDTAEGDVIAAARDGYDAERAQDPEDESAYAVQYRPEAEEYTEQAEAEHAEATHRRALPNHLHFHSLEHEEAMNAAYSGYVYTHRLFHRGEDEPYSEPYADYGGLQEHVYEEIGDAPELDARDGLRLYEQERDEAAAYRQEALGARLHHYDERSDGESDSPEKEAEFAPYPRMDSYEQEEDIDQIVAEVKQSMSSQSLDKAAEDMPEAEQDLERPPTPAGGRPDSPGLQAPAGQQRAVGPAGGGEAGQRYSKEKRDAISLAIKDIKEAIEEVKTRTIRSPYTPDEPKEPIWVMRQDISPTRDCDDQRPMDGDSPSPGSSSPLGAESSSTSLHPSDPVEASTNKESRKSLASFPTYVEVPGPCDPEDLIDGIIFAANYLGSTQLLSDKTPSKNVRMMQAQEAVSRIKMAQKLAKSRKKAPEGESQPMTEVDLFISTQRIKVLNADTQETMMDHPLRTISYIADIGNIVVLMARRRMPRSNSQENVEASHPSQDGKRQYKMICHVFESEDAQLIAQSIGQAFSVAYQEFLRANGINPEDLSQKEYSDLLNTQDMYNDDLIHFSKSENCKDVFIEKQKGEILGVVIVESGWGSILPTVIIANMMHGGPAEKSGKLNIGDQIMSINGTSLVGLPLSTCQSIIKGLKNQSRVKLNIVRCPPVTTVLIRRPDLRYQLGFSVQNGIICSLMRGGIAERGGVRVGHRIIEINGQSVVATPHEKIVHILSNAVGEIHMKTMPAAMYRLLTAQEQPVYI
Chain of Nonstructural protein 1 (Q194T2 whole entry): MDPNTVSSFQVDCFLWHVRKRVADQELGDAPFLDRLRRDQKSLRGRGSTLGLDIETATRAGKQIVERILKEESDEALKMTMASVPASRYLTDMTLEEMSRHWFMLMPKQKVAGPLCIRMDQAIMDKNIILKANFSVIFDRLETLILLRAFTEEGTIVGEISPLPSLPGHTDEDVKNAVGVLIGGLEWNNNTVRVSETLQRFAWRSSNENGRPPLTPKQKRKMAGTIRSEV
Chain of Trypsin (P00761 whole entry): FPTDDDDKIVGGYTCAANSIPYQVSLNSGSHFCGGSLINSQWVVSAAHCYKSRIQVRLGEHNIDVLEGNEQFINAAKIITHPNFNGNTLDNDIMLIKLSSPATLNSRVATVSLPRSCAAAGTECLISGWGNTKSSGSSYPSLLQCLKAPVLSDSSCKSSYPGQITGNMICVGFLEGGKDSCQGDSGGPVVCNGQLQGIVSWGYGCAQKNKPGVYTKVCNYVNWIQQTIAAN
Chain of Melanocortin receptor 4 (P32245 whole entry): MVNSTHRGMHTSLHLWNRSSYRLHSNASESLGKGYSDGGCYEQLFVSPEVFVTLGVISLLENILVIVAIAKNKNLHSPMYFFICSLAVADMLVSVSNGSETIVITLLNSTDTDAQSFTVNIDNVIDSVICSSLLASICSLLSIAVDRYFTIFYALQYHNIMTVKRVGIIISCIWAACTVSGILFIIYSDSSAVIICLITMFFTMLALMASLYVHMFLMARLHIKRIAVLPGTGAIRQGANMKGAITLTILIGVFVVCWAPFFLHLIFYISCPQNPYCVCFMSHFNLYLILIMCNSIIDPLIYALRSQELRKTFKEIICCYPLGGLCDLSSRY

SMILES: COc1ccc(Oc2c(CCl)cnn(Cc3cccc4ccccc34)c2=O)cc1
- IC50 [1]: 2.87 µM (active)
- IC50 [2]: 2.87 µM (active)

SMILES: Cc1cccc(NC(=O)[C@@H]2CCCN2S(=O)(=O)c2ccc(Cl)cc2)c1
- IC50 [3]: 0.153 µM (active)
- IC50 (CHO-K1): > 66.2 µM (inactive)
- IC50 (Orexin receptor type 2 [4]): 0.37 µM (active)
- IC50 (Orexin receptor type 2 [5]): 1.4 µM (active)
- IC50 [6]: 4.23 µM (active)
- IC50 [7]: > 49.7 µM (inactive)

SMILES: O=C(COC(=O)c1ccccn1)c1cccc(Br)c1
- IC50 (Nonstructural protein 1): 25.6 µM (active)
- AC50 [8]: 91 µM (active)

SMILES: COc1ccccc1CC(=O)NC1CCCc2ccccc21 (stereo not drawn)
- IC50 [9]: 9.28 µM (active)

SMILES: O=C(CN1C(=O)/C(=C\c2cccc(Br)c2)Oc2ccccc21)NCC1CCCO1 (stereo not drawn)
- IC50 [3]: 0.314 µM (active)
- IC50 (CHO-K1): > 66.2 µM (inactive)
- IC50 (Orexin receptor type 2 [4]): > 50 µM (inactive)
- IC50 (Orexin receptor type 2 [5]): > 88.8 µM (inactive)
- AC50 (Trypsin): 4.3 µM (active)
- IC50 [6]: 1.08 µM (active)
- IC50 [7]: > 49.8 µM (inactive)
- IC50 [10]: > 50 µM (inactive)
- IC50 [11]: 4.98 µM (active)

SMILES: O=C(NC(c1ccccc1)c1ccc2ccccc2n1)C1CCN(CCOc2ccc(Cl)cc2Cl)CC1 (stereo not drawn)
- EC50 (Melanocortin receptor 4): > 89.2 µM (inactive)

SMILES: N#CCc1c(Cl)cnn(Cc2cccc3ccccc23)c1=O
- IC50 [1]: 2.69 µM (active)
- IC50 [2]: 2.69 µM (active)

SMILES: O=C(CSc1c2c(nc3ccc(Cl)cc13)CCCC2)NCCCN1CCOCC1
- IC50 [12]: 4.29 µM (active)
- IC50 [13]: 4.47 µM (active)

SMILES: Oc1c(Br)cc(Br)cc1/C=N\c1cccnc1
- IC50 [12]: 4.37 µM (active)
- IC50 [13]: 2.99 µM (active)
- CC50 [14]: 17.3 µM (active)
- AC50 [15]: 3.09 µM (active)

SMILES: CC(C)CNc1nc(S)nc(N(C)C)n1
- IC50 [16]: > 66 µM (inactive)
- EC50 [17]: > 104 µM (inactive)
- IC50 [18]: > 66 µM (inactive)

SMILES: O=[N+]([O-])Nc1nccn1Cc1ccc(Cl)nc1 [DEHYDROIMIDACLOPRID]
- AC50 [19]: 39.8 µM (inconclusive)
